Test results published in PubChem BioAssay AID248 (DTP/NCI, 2004).
Several values for one entry are separate records, joined by “and”; a condition that tells them apart may be missing. Equal entries are not always repeated. Inconclusive results and toxic doses are left out.

Tested on: L1210 leukemia ip in BDF1 mice, survival T/C
Test: NCI In Vivo Anticancer Drug Screen. Data for tumor model L1210 Leukemia (intraperitoneal) in B6D2F1 (BDF1) mice
Details: higher = longer survival
Summary of the method: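 Tumor was transplanted into mice, which were then dosed with test compound or vehicle alone. Survival was recorded for each group, and the treated figure was expressed relative to the control figure.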

`C1CN1c1nc(N2CC2)nc(N2CC2)n1` was tested, and the T/C (endpoint: mean survival time, dose: 1.0 mg/kg/injection, schedule: Q01DX009 (oral), vehicle: saline) was 124 % of control, the T/C (endpoint: mean survival time, dose: 1.0 mg/kg/injection, schedule: Q01DX010 (oral), vehicle: carboxymethylcellulose (CMC)) was 119 % of control and the T/C (endpoint: mean survival time, dose: 1.0 mg/kg/injection, schedule: Q01DX Z (ip), vehicle: saline) was 96 % of control and 110 % of control. The T/C (endpoint: mean survival time, dose: 1.0 mg/kg/injection, schedule: Q04DX003 (ip), vehicle: Klucel (hydroxypropylcellulose) (HPC)) was 152 % of control and 173 % of control, the T/C (endpoint: mean survival time, dose: 1.0 mg/kg/injection, schedule: Q## X003 (ip), vehicle: saline) was 177 % of control and the T/C (endpoint: mean survival time, dose: 1.0 mg/kg/injection, schedule: Q## X008 (ip), vehicle: saline) was 108 % of control. For the same compound, the T/C (endpoint: mean survival time, dose: 1.0 mg/kg/injection, schedule: Q#A X Z (ip), vehicle: saline) was 93 % of control, the T/C (endpoint: mean survival time, dose: 1.3 mg/kg/injection, schedule: Q## X003 (ip), vehicle: saline) was 164 % of control and the T/C (endpoint: mean survival time, dose: 1.3 mg/kg/injection, schedule: Q## X004 (ip), vehicle: saline) was 185 % of control. For the same compound, the T/C (endpoint: mean survival time, dose: 1.5 mg/kg/injection, schedule: Q01DX005 (ip), vehicle: saline) was 118 % of control, the T/C (endpoint: mean survival time, dose: 1.5 mg/kg/injection, schedule: Q04DX003 (ip), vehicle: saline) was 169 % of control and the T/C (endpoint: mean survival time, dose: 1.75 mg/kg/injection, schedule: Q07DX Z (ip), vehicle: saline) was 193 % of control. The T/C (endpoint: mean survival time, dose: 2.0 mg/kg/injection, schedule: Q01DX001 (oral), vehicle: saline) was 106 % of control, the T/C (endpoint: mean survival time, dose: 2.0 mg/kg/injection, schedule: Q01DX001 (sc), vehicle: saline) was 159 % of control and the T/C (endpoint: mean survival time, dose: 2.0 mg/kg/injection, schedule: Q01DX010 (oral), vehicle: carboxymethylcellulose (CMC)) was 97 % of control. For the same compound, the T/C (endpoint: mean survival time, dose: 2.0 mg/kg/injection, schedule: Q## X002 (ip), vehicle: saline) was 197 % of control, the T/C (endpoint: mean survival time, dose: 2.0 mg/kg/injection, schedule: Q## X003 (ip), vehicle: saline) was 172 % of control and 186 % of control and the T/C (endpoint: mean survival time, dose: 2.0 mg/kg/injection, schedule: Q## X004 (ip), vehicle: saline) was 191 % of control. For the same compound, the T/C (endpoint: mean survival time, dose: 2.0 mg/kg/injection, schedule: Q## X006 (ip), vehicle: saline) was 193 % of control, the T/C (endpoint: mean survival time, dose: 2.0 mg/kg/injection, schedule: Q## X016 (ip), vehicle: saline) was 168 % of control and the T/C (endpoint: mean survival time, dose: 2.0 mg/kg/injection, schedule: Q## X024 (ip), vehicle: saline) was 188 % of control. The T/C (endpoint: mean survival time, dose: 2.1 mg/kg/injection, schedule: Q01DX001 (ip), vehicle: saline) was 187 % of control, the T/C (endpoint: mean survival time, dose: 3.0 mg/kg/injection, schedule: Q01DX001 (ip), vehicle: saline) was 107 % of control and the T/C (endpoint: mean survival time, dose: 3.0 mg/kg/injection, schedule: Q## X003 (ip), vehicle: saline) was 150 % of control. For the same compound, the T/C (endpoint: mean survival time, dose: 3.0 mg/kg/injection, schedule: Q## X004 (ip), vehicle: saline) was 108 % of control, the T/C (endpoint: mean survival time, dose: 3.13 mg/kg/injection, schedule: Q01DX001 (ip), vehicle: saline) was 164 % of control and the T/C (endpoint: mean survival time, dose: 3.2 mg/kg/injection, schedule: Q01DX001 (ip), vehicle: saline) was 213 % of control. The T/C (endpoint: mean survival time, dose: 4.0 mg/kg/injection, schedule: Q01DX001 (oral), vehicle: saline) was 122 % of control, the T/C (endpoint: mean survival time, dose: 4.0 mg/kg/injection, schedule: Q01DX009 (oral), vehicle: saline) was 113 % of control and the T/C (endpoint: mean survival time, dose: 4.0 mg/kg/injection, schedule: Q01DX Z (oral), vehicle: saline) was 93 % of control. For the same compound, the T/C (endpoint: mean survival time, dose: 4.0 mg/kg/injection, schedule: Q## X002 (ip), vehicle: saline) was 118 % of control, the T/C (endpoint: mean survival time, dose: 4.0 mg/kg/injection, schedule: Q## X006 (ip), vehicle: saline) was 95 % of control and the T/C (endpoint: mean survival time, dose: 4.5 mg/kg/injection, schedule: Q01DX001 (ip), vehicle: saline) was 94 % of control. For the same compound, the T/C (endpoint: mean survival time, dose: 4.5 mg/kg/injection, schedule: Q## X003 (ip), vehicle: saline) was 98 % of control, the T/C (endpoint: mean survival time, dose: 4.5 mg/kg/injection, schedule: Q## X004 (ip), vehicle: saline) was 106 % of control and the T/C (endpoint: mean survival time, dose: 8.0 mg/kg/injection, schedule: Q01DX001 (ip), vehicle: saline) was 110 % of control. The T/C (endpoint: mean survival time, dose: 16.0 mg/kg/injection, schedule: Q01DX001 (ip), vehicle: saline) was 107 % of control, the T/C (endpoint: mean survival time, dose: 49.0 micrograms/kg/injection, schedule: Q01DX Z (ip), vehicle: carboxymethylcellulose (CMC)) was 95 % of control and the T/C (endpoint: mean survival time, dose: 98.0 micrograms/kg/injection, schedule: Q01DX Z (ip), vehicle: carboxymethylcellulose (CMC)) was 97 % of control. The T/C (endpoint: mean survival time, dose: 195.0 micrograms/kg/injection, schedule: Q01DX Z (ip), vehicle: carboxymethylcellulose (CMC)) was 95 % of control, the T/C (endpoint: mean survival time, dose: 390.0 micrograms/kg/injection, schedule: Q01DX Z (ip), vehicle: carboxymethylcellulose (CMC)) was 100 % of control and the T/C (endpoint: median survival time, dose: 0.25 mg/kg/injection, schedule: Q01DX001 (ip), vehicle: saline) was 104 % of control. For the same compound, the T/C (endpoint: median survival time, dose: 0.5 mg/kg/injection, schedule: Q01DX001 (ip), vehicle: saline) was 115 % of control.
